US20220387602A1, “BIFUNCTIONAL DEGRADERS AND THEIR METHODS OF USE” (NOVARTIS AG, priority 2019, published 2022)

Experiments:
hTNNI3K WT = biological target: T1, hTNNI3K WT (Homo sapiens, UniProt Q59H18); assay: TNNI3K degradation in HEK293 cells overexpressing hTNNI3K WT (western blot); format: cell-based; conditions: FIGS. 4A-4B; for TNNI3K degradation (western blot): concentration dependent; for concentration from which no residual TNNI3K was detected: western blot, 18 hours
T1 construct: expressed in transfected cells
T1 sequence (Q59H18 1-835): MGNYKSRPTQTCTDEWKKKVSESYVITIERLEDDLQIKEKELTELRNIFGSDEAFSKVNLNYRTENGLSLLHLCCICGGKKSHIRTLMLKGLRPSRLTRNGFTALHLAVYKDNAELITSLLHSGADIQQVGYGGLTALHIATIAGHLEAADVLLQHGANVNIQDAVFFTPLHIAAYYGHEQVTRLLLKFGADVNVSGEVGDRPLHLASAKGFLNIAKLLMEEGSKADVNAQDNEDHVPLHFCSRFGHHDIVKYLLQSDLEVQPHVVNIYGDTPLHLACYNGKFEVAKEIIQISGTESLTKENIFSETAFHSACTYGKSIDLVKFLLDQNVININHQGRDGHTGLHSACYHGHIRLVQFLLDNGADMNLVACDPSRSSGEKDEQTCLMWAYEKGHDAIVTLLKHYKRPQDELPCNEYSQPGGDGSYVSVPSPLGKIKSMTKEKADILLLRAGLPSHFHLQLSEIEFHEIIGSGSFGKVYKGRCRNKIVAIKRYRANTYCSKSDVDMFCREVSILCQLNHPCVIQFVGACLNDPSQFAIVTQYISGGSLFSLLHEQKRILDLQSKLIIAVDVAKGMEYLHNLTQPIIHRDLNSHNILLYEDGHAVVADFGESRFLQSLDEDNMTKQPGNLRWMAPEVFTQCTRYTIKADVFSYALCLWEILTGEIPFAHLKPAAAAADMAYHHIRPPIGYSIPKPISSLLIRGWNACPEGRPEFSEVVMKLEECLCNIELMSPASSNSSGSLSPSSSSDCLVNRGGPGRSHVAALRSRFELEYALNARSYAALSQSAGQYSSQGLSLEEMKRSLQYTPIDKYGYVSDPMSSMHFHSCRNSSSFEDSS
Method: HEK293-hTNNI3K stable cells were seeded at 400,000 cells/well in 6-well plate and incubated at 37° C. and 5% CO2 overnight in DMEM containing 10% FBS. The following day growth media was replaced with low-serum media containing DMEM with 0.5% FBS and incubated at 37° C. and 5% CO2 overnight. Following overnight serum starvation, cells were treated with compounds at 20 μM starting dose with 1:5 serial dilution prepared in low-serum media. Media was removed and compounds were added to 6-well plate at 2 mL per well and cells were incubated at 37° C. and 5% CO2 for 18 hours. Following compound treatment cells were washed with cold DPBS containing protease/phosphatase inhibitor cocktail (Thermo #1861284) and lysed in RIPA buffer on ice (Pierce #89900, also containing protease/phosphatase inhibitors). Following sonication and frequent vortexing at 4° C. for approximately 1 hour, samples were centrifuged at 14,000 rpm for 20 minutes. Supernatants were collected for protein samples. Protein concentration was determined using BioRad DC Protein Assay (FIGS. 3A and 3C).
Samples for western blotting were prepared in loading buffer (Thermo #NP0007) and 8 μg protein was loaded per lane in 4-12% Novex Bis-Tris gel and run at 60V for approximately 1 hour. Gels were transferred to PVDF membrane using semi-dry transfer device iBlot 2 from Thermo Scientific. Blots were blocked using Superblock T20 blocking solution for 2 hours at room temperature (Thermo #37536). Blots were then incubated with primary antibodies overnight with gentle shaking at 4° C. (TNNI3K #ab136954 and Beta-Actin CST #3700) at 1:1000 and 1:2000 dilution respectively. Following overnight primary antibody incubation, blots were washed 3 times on rocker for 5 minutes each with 1×TBS-T at room temperature. Blots were then incubated with secondary HRP-anti-rabbit at 1:2000 dilution (CST #7074) for 2 hours at room temperature. Blots were then washed with 1×TBS-T 3 times on rocker for 5 minutes each. Protein bands were detected using BioRad Chemi-Doc station and Supersignal West Dura substrate (Thermo #34075). Protein bands were quantified using ImageJ software. TNNI3K bands were normalized to beta-actin loading control. Data are graphed by fold change of cpd over DMSO control.
Here the amount of total normalized TNNI3K expression levels were monitored upon compound treatment in a dose dependent manner. IC50 refers to the concentration at which 50% reduction in protein expression was observed.

CRBN [1] = biological target: T2, CRBN (Homo sapiens, UniProt Q96SW2); assay: CRBN displacement assay Format 2b (as 2a, quadruplicate, PHERAstar reader); format: binding
Method: Assay conditions are similar to Format 2a with the exception of • a. The assay run in quadruplicate • b. PHERAstar reader (BMG Labtech, Offenburg, Germany) was used instead of an Envision reader • c. For the determination of AC50 values, assays were performed at room temperature in 1536-well plates with a total assay volume of […] per well. The test compounds were dissolved and diluted in 100% DMSO. For the assays, 30 nL of DMSO or compound solution were added per well, followed by the addition of 3 μL protein solution (80 nM protein in 1× assay buffer).

CRBN [2] = biological target: T2, CRBN; assay: CRBN displacement assay Format 2a (fluorescence polarization, 1536-well, Envision reader); format: binding
Method in brief: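 Competition format: compound first equilibrated with CRBN protein (nominally 40 nM) for 45 min at RT, then challenged 45 min with 5 nM BodipyFL-conjugated lenalidomide tracer. FP measured at 480 nm excitation/535 nm emission; AC50 derived by four-parameter logistic fit of %-saturation.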

[3] = concentration at which 50% of reference probe Compound HH is displaced, quadruplicate, read-out: CRBN AC50 [μM] Format 2b
[4] = concentration at which 50% of reference probe Compound HH is displaced, 40 nM protein, 5 nM probe, read-out: CRBN AC50 [μM] Format 2a

T2 sequence (Q96SW2 whole entry): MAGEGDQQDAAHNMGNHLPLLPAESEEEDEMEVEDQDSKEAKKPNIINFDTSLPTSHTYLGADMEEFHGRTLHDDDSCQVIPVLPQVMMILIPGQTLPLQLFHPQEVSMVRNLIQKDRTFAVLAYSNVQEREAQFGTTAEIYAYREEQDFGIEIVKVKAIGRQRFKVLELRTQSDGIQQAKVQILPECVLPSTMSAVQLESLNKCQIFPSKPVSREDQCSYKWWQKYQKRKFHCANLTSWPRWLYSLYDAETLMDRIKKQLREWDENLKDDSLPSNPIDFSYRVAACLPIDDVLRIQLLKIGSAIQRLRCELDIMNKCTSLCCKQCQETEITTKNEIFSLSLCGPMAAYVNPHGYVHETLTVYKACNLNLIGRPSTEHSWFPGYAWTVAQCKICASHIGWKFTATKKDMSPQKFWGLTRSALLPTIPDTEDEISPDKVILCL

Row | AC50 (CRBN [1]; [3]) | AC50 (CRBN [2]; [4]) | Compound | further results
1 | – | – | CNS(=O)(=O)c1ccc(N(C)C)c(Nc2ncnc3cc(OCCCN4CCN(C(=O)N5CCN(CCC#Cc6ccc(N7CCC(=O)NC7=O)cc6)CC5)CC4)ccc23)c1 [Compound 21, 4-(dimethylamino)-3-((7-(3-(4-(4-(4-(4-(2,4-dioxotetrahydropyrimidin-1(2H)-yl)phenyl)but-3-yn-1-yl)piperazine-1-carbonyl)piperazin-1-yl)propoxy)quinazolin-4-yl)amino)-N-methylbenzenesulfonamide] | TNNI3K degradation (western blot) (hTNNI3K WT): full degradation; concentration from which no residual TNNI3K was detected (hTNNI3K WT): 6 nM
2 | – | – | CNS(=O)(=O)c1ccc(N(C)C)c(Nc2ncnc3cc(OCCCN4CCC5(CC4)CN(CC#Cc4ccc(N6CCC(=O)NC6=O)cc4)CCO5)ccc23)c1 [Compound 22, 4-(dimethylamino)-3-((7-(3-(4-(3-(4-(2,4-dioxotetrahydropyrimidin-1(2H)-yl)phenyl)prop-2-yn-1-yl)-1-oxa-4,9-diazaspiro[5.5]undecan-9-yl)propoxy)quinazolin-4-yl)amino)-N-methylbenzenesulfonamide] | TNNI3K degradation (western blot) (hTNNI3K WT): full degradation; concentration from which no residual TNNI3K was detected (hTNNI3K WT): 32 nM
3 | 8 µM | 6.01 µM | CCOC(=O)Cc1cncc(N2CCC(=O)NC2=O)c1 [ILB-71, Ethyl 2-(5-(2,4-dioxotetrahydropyrimidin-1(2H)-yl)pyridin-3-yl)acetate] | –
4 | 18 µM | 29.4 µM | COC(=O)c1cncc(N2CCC(=O)NC2=O)c1 [ILB-72, Methyl 5-(2,4-dioxotetrahydropyrimidin-1(2H)-yl)nicotinate] | –
5 | – | – | O=C1CCN(c2cncc(Cl)c2)C(=O)N1 [ILB-73, 1-(5-Chloropyridin-3-yl)dihydropyrimidine-2,4(1H,3H)-dione] | AC50 (CRBN [1]): 11.9 µM; AC50 (CRBN [2]): 15 µM
6 | 4.61 µM | 6.28 µM | C=C(C)c1cncc(N2CCC(=O)NC2=O)c1 [ILB-74, 1-(5-(Prop-1-en-2-yl)pyridin-3-yl)dihydropyrimidine-2,4(1H,3H)-dione] | –
7 | – | – | CC(O)c1ccc(N2CCC(=O)NC2=O)cn1 (centres unmarked) [ILB-75, 1-(6-(1-Hydroxyethyl)pyridin-3-yl)dihydropyrimidine-2,4(1H,3H)-dione] | AC50 (CRBN [1]): 28.7 µM; AC50 (CRBN [2]): > 50 µM; CRBN Amax* (% at 50 μM) Format 2a (CRBN [2]; greatest effect as % displacement of the reference probe at the highest concentration tested (50 μM), given where AC50 >50 μM, 45 min): 40%
8 | 15.3 µM | 8.09 µM | O=C1CCN(c2cncc(Br)c2)C(=O)N1 [ILB-76, 1-(5-Bromopyridin-3-yl)dihydropyrimidine-2,4(1H,3H)-dione] | –
9 | 0.3 µM | 0.5 µM | O=C1CCN(c2cncc(O)c2)C(=O)N1 [ILB-77, 1-(5-Hydroxypyridin-3-yl)dihydropyrimidine-2,4(1H,3H)-dione] | –
10 | 5.07 µM | 5.72 µM | CCOC(=O)c1cncc(N2CCC(=O)NC2=O)c1 [ILB-78, Ethyl 5-(2,4-dioxotetrahydropyrimidin-1(2H)-yl)nicotinate] | –
11 | – | – | O=C1CCN(c2cn[nH]c2)C(=O)N1 [ILB-79, 1-(1H-Pyrazol-4-yl)dihydropyrimidine-2,4(1H,3H)-dione] | AC50 (CRBN [1]): 6.78 µM; AC50 (CRBN [2]): 7.15 µM
